# Laboratory results reported in patent US20220226357A1, “METHODS FOR TREATING NEURODEGENERATIVE DISORDERS” (THOMAS JEFFERSON UNIVERSITY, priority 2019, published 2022).
# Marks after values point to notes of the source that are not given here.
# Tests used:
# Type in all cases: in vivo
# [1] = test system: AAV-A53T α-synuclein rat model; assay: Cylinder test of spontaneous forelimb use
# Experimental: (§1) Institutional Animal Care and Use Committee and conducted in accordance with the National Institutes of Health Guide for the Care and Use of Laboratory Animals. Adult male Sprague-Dawley rats (Envigo), 250 to 300 g at the time of surgery, were housed three per cage with ad libitum access to food and water during a 12-hour light/dark cycle. All surgeries were performed under general anesthesia using a mixture of ketamine (100 mg/kg, i.p.) and xylazine (10 mg/kg, i.p.). Once animals were anesthetized, the head was shaved and surgically prepped with Betadine solution and alcohol before being placed in a Kopf stereotaxic frame with the incisor bar set at approximately 3.5 mm below horizontal zero to achieve a flat skull position. The skin on the top of the skull was cut along the midline and retracted. […] Following a 5 minute wait period after completion of the injection, the needle was slowly withdrawn, the skin wound was closed, and post-surgery analgesia (meloxicam 1 mg/kg) was administered. Some rats were randomly assigned to receive daily GM1 ganglioside (porcine brain derived GM1, 30 mg/kg, i.p., Qilu Pharmaceutical Co., Ltd.) or similar volume saline injections beginning 24 hours after AAV-A53T-synuclein surgery and lasting for 6 weeks (early start group). Other animals were randomly assigned to receive daily GM1 ganglioside (porcine brain derived GM1, 30 mg/kg, i.p., Qilu Pharmaceutical Co.) or similar volume saline injections beginning 3 weeks after AAV-A53T-synuclein surgery and lasting for 5 weeks (delayed start group). […] At the conclusion of the study, animals were euthanized, fresh brains were rapidly removed, and two to three striatal samples from both sides were dissected and immediately frozen for later analyses. The remainder of the brain (including the striatum beginning at the level of the decussation of the anterior commissure) was submersion fixed in 4% paraformaldehyde.
# Forelimb use during explorative activity was analyzed using the cylinder test. The test apparatus consisted of a clear Plexiglass cylinder of approximately 33 cm diameter and 50 cm height placed in a dimly lit room in front of a mirror in order to visualize limb use from all angles. Each session was videotaped for later analysis by an observer blind to the animal's experimental group. The paw contralateral to the side of the AAV-A53T-α-synuclein injection was marked prior to the start of each test session to definitively determine laterality on videotapes. The test was performed in the late afternoon prior to the onset of the dark cycle. At each test session, the animal was gently placed in the cylinder and movements were videotaped for 10 minutes. Forelimb use was assessed by scoring weight-bearing contacts on the cylinder wall with the ipsilateral, contralateral (relative to the AAV-A53T-α-synuclein-injected side), and both paws. Twenty observations of the paw placements on the cylinder wall were scored. Limb placement on the wall was scored only if it occurred after the animal returned to a resting position and reared again to touch the cylinder wall. Percent ipsilateral (ipsi) and contralateral (contra) paw touches were calculated as [(ipsi+1/2 both)/total #observations]*100 and [(contra+1/2 both)/total #observations]*100, respectively. The cylinder test was performed prior to surgery (baseline) and at 3 and 6 weeks after surgery for the immediate start GM1 groups and at 3 and 8 weeks after surgery for the delayed start GM1 groups.
# [2] = test system: AAV-A53T α-synuclein rat model; assay: Striatal dopamine and metabolite levels (UHPLC, electrochemical detection); details: for DA / DOPAC: striatum
# Experimental: as §1
# Striatal samples were sonicated cold in 0.4 M perchloric acid for 10 seconds and centrifuged at 13,000 rpm for 10 min at 4° C. The supernatant was removed and was diluted 1:4 with Milli-Q ultrapure water (resistivity 18.2 MΩ·cm) containing internal standard (isoproterenol, 4 ng). The diluted samples were centrifuged again at 13,000 rpm for 5 min at 4° C. Samples were kept on ice prior to loading into the refrigerated (4° C.) autosampler integrated with the HPLC system. An ALEXYS UHPLC system (Antec Scientific) with electrochemical detection (Decade Elite electrochemical detector with a glassy carbon electrode) was used for the analyses. […] The mobile phase (pH 3.0) consisted of 100 mM phosphoric acid, 100 mM citric acid, 0.1 mM EDTA.Na2, 600 mg/L octanesulfonic acid sodium salt, and 8% acetonitrile. Pump flow rate was 50 μl/min. The analytes were detected at an oxidation potential of 600 mV against a reference electrode at 0 mV. Data were acquired and processed using Clarity software (v7.4.1) (DataApex). Peak heights were compared against internal standard curves to determine the concentrations of DA and metabolites in each sample.
# [3] = test system: AAV-A53T α-synuclein rat model; assay: Stereological counting of TH+ and Nissl (cresyl violet) stained neurons in the SNc
# Experimental: as §1
# Fixed tissue blocks were immersed in 30% sucrose for cryoprotection and sectioned frozen on a sliding microtome (30 μm section thickness for striatal sections; 40 μm section thickness for SN sections). Sections through the rostro-caudal extent of the SN were collected and every sixth section from the SN was processed for tyrosine hydroxylase (TH) immunohistochemistry to be used for stereological cell counting. Three striatal sections from approximately the level of the decussation of the anterior commissure in each case were processed for α-synuclein immunohistochemistry. For immunohistochemistry, sections were washed and permeabilized with PBS containing 0.2% Triton X-100. Endogenous peroxidase activity was quenched using 3% hydrogen peroxide in PBS containing 0.2% Triton X-100. Sections were then blocked in PBS/triton X-100 containing 10% normal goat serum and 2% BSA, followed by primary antibody incubation (TH (rabbit anti-TH, 1:2,000, Pel-Freez); α-synuclein (mouse anti-α-synuclein clone 211; 1:2000, Millipore) overnight at 4° C. The following day, sections were washed in PBS and incubated in biotinylated secondary antibody (goat-anti-rabbit 1:4000 for TH; goat-anti-mouse 1:2000 for α-synuclein 1:2000, VECTOR Laboratories), followed by additional washes and incubation in avidin biotin complex (VECTASTAIN Elite ABC system, VECTOR Laboratories). The reaction product was visualized with 3,3′-diaminobenzidine (DAB) (Immpact DAB, VECTOR Laboratories). Sections were then mounted, dehydrated, cleared and coverslipped. Sections stained for visualization of TH and to be used for stereological cell counting were counterstained with cresyl violet prior to coverslipping. Stereological estimates of the numbers of TH and cresyl violet-stained neurons in the SNc on both sides of the brain were obtained using StereoInvestigator software (MBF Bioscience) and an Olympus BX-60 microscope equipped with a Ludl motorized stage. Slides were coded and analyzed blindly. […]
# [4] = delayed start GM1, 8 weeks after AAV-A53T
# [5] = early start GM1, 6 weeks after AAV-A53T
# [6] = AAV-A53T/Delayed GM1, injected side
# [7] = AAV-A53T/Delayed GM1, non-injected side
# [8] = AAV-A53T/Early GM1, injected side
# [9] = AAV-A53T/Early GM1, non-injected side
substance,measurement,setting,value
GM1 ganglioside,percent ipsilateral forelimb use,"[1]; delayed start GM1 30 mg/kg/day i.p. from week 3 for 5 weeks, week 8",61.5±2.7%
same,percent ipsilateral limb use,"[1]; delayed start GM1 group, baseline (prior to surgery and GM1)",50.0±2.0%
same,percent ipsilateral forelimb use,"[1]; delayed start GM1 group, week 3, just prior to receiving GM1",74.9±2.8%
same,percent ipsilateral limb use,"[1]; early start GM1 30 mg/kg/day i.p. from 24 h after AAV-A53T, 3 weeks, mean±SEM",67.1±3.7%
same,percent ipsilateral limb use,"[1]; early start GM1 30 mg/kg/day i.p. from 24 h after AAV-A53T, 6 weeks, mean±SEM",56.0±2.5%
same,percent ipsilateral limb use,"[1]; early start GM1 group, baseline (prior to surgery and GM1), mean±SEM",50.1±1.8%
same,"DOPAC levels on the injected side, % of non-injected side",[2]; [4],82.0±8.4%
same,"DOPAC/DA ratio on the injected side, % of contralateral side",[2]; [4],150.0±10.9%
same,"striatal DA levels on the injected side, % of contralateral side",[2]; [4],55.0±3.9%
same,"DOPAC/DA ratio on the injected side, % of contralateral side",[2]; [5],112.3±9.5%
same,"striatal DA levels on the injected side, % of contralateral side",[2]; [5],64.0±3.5%
same,DA,[2]; [6],5.87 ± 0.47^b μg/g wet tissue
same,DOPAC,"[2]; AAV-A53T/Delayed GM1, injected side, two outlier samples removed",0.93 ± 0.12^ μg/g wet tissue
same,DA,[2]; [7],10.73 ± 0.54 μg/g wet tissue
same,DOPAC,"[2]; AAV-A53T/Delayed GM1, non-injected side, two outlier samples removed",1.18 ± 0.10^ μg/g wet tissue
same,DA,[2]; [8],7.29 ± 0.45^a μg/g wet tissue
same,DOPAC,[2]; [8],0.85 ± 0.09 μg/g wet tissue
same,DA,[2]; [9],11.43 ± 0.32 μg/g wet tissue
same,DOPAC,[2]; [9],1.33 ± 0.10 μg/g wet tissue
same,Nissl+ Cells,[3]; [6],3335 ± 148^d
same,TH+ Cells,[3]; [6],2814 ± 134^c
same,Nissl+ Cells,[3]; [7],6113 ± 132
same,TH+ Cells,[3]; [7],5685 ± 143
same,Nissl+ Cells,[3]; [8],3557 ± 172^b
same,TH+ Cells,[3]; [8],3144 ± 159^a
same,Nissl+ Cells,[3]; [9],6074 ± 174
same,TH+ Cells,[3]; [9],5601 ± 135
same,loss of TH+ neurons compared to the contralateral side,"[3]; delayed start GM1, 8 weeks",50.6±2.1%
same,loss of cresyl violet-stained neurons compared to the contralateral side,"[3]; delayed start GM1, 8 weeks",45.5±2.1%
same,loss of TH+ neurons compared to the non-injected side,"[3]; early start GM1, 6 weeks",43.7±2.7%
same,loss of cresyl violet-stained neurons compared to the contralateral side,"[3]; early start GM1, 6 weeks",41.9±2.5%
